In patent publication US10513519B2, “Solid forms of (1S,4S)-4-(2-(((3S,4R)-3-fluorotetrahydro-2H-pyran-4-yl)amino)-8-((2,4,6-trichlorophenyl)amino)-9H-purin-9-yl)-1-methylcyclohexane-1-carboxamide and methods of their use” (Signal Pharmaceuticals, LLC, priority 2016, dated 2019):
pIC50: −log10 of the molar value.

Key:
[1] = test system: Axin2 expression in human bronchial epithelial cells; test: Axin2 gene expression in human bronchial epithelial cells; format: cell-based; conditions: 0.1, 1, 10 μM; Wnt3a and/or RSPO3 stimulation; 24 hours
Procedure: Human bronchial epithelial cells were cultured in T-150 flasks in BEpiCM growth medium and allowed to reach 80% confluency. Cells were plated in 12-well plastic culture plates at 150,000 cells per well in BEpiCM medium for 24 hours. After a 24-hour incubation, cells were treated with dimethyl sulfoxide (DMSO) as a control, Compound 1 at 0.1, 1, 10 μM, for 30 minutes. Cells were then stimulated with 100 ng/ml recombinant Wnt3a (formulated in phosphate buffered saline [PBS]), 350 pM RSPO3 (formulated in PBS) or a combination of Wnt3 and RSPO3 for 24 hours. Ribonucleic acid (RNA) was isolated using a Qiagen Rneasy Mini Kit according to manufacturer's instruction. Axin2 and gene expression was determined using reverse transcription polymerase chain reaction (RT-PCR) Taq-Man assays. Quantitative PCR (qPCR) was performed using SuperScript® III One-Step RT-PCR System and ran on a Viia 7 Real-Time PCR System. Data was normalized to glyceraldehyde 3-phosphate dehydrogenase. […] Gene expression was measured at 24 hours. […] (FIG. 209).

Colo 205 xenograft = test: Colo 205 subcutaneous colorectal xenograft model; format: in vivo, SCID mice
Procedure: For xenograft model studies human cancer cell lines were injected into SCID (severe combined immunodeficiency) mice. Cancer cell lines were propagated in culture in vitro. Tumor bearing animals were generated by injecting precisely determined numbers of cells into mice. Following inoculation of animals, the tumors were allowed to grow to a certain size prior to randomization. The mice bearing xenograft tumors ranging between pre-determined sizes were pooled together and randomized into various treatment groups. A typical efficacy study design involved administering one or more compounds at various dose levels to tumor-bearing mice. Additionally, reference chemotherapeutic agents (positive control) and negative controls were similarly administered and maintained. Tumor measurements and body weights were taken over the course of the study.
In the first experiment Compound 1 was administered orally, QD for 15 days at 0.2, 1, 5, 10, and 15 mg/kg.

[2] = test system: surface PD-L1 in cancer cell lines; test: Cell surface PD-L1 by FACS; format: cell-based; conditions: multiple cancer cell lines, 48 h
Procedure: The effect of Compound 1 was evaluated on PD-L1 expression levels. Cells were cultured in presence or absence of Compound 1 for indicated time before expression levels of PD-L1, DUSP4 and α-tubulin or α-actin were measured by Western blot. To detect surface levels of PD-L1, cells were treated with DMSO or Compound 1 at indicated concentrations for 48 h and cell surface expression of PD-L1 was detected using flow cytometry analysis (FACS) with an APC-labeled antibody to PD-L1 (clone 29E.1A3.; BioLegend, San Diego, Calif.). Geometric mean of PD-L1 positive cells was determined by FlowJo 10 (Treestar, Ashland, Oreg.).

SW48 (colo) cells = test: Long term colony assay, SW48; format: cell-based; conditions: SW48, up to 8 weeks
Procedure: Compound 1 was assessed for its ability to inhibit the colony formation of cancer cells via a long-term colony forming assay. Cells and compounds were added to 96-well plates and were monitored for up to 8 weeks for the formation of colonies. Compound and media were replenished every 1 week throughout the course of the assay. Colony formation was detected via imaging at 4× on the IncuCyte ZOOM System. […] (FIGS. 210A-210D).

[3] = Dynamic vapor sorption (hygroscopicity); format: physicochemical
Procedure: Dynamic vapor sorption (DVS) was measured using DVS advantage (Surface Measurement Systems Ltd). The samples were tested under isotherm (25° C.) at a targeted RH of 0 to 95% full cycle in step mode. For an isotherm test, the chamber temperature was maintained by a water bath at constant 25.0±1.0° C. The relative humidity in the sample chamber was generated by combining different flows of wet and dry nitrogen with variable flow rates. The analysis was performed in 10% RH increments. Sampling rate was 1 sec save data rate is 20 sec. The dm/dt (%) value was set at 0.001 with a dm/dt window of 5 min., a minimum stability duration time of 10 min, and a maximum stage time of 180 min. The sample's equilibrium weight corresponding to each RH was recorded. A sorption isotherm was obtained by plotting equilibrium moisture content versus RH.
Hygroscopicity was determined on a Surface Measurement Systems DVS. A sample size of 5-20 mg was loaded into the DVS instrument sample pan and the sample was analyzed on a DVS automated sorption analyzer at room temperature. The relative humidity was increased from 0% to 90% RH at 10% RH step, then decreased in a similar manner to accomplish a full adsorption/desorption cycle.

pRSK1 S380 in SW48 cells = test: pRSK1 S380 Mesoscale assay in SW48; format: cell-based; conditions: Homo sapiens; SW48, 2 h treatment, n = 3
Procedure: Cancer cells were seeded at a density of 25,000 cells per well in 96-well tissue culture plates and incubated at 37° C. in a CO2 incubator overnight. After treatment with Compound 1 at 37° C. for 2 h, the cells were lysed with Mesoscale lysis buffer and pRSK S380 levels in each lysate were measured via Mesoscale ELISA technology.

In the case of C[C@]1(C(N)=O)CC[C@@H](n2c(Nc3c(Cl)cc(Cl)cc3Cl)nc3cnc(N[C@@H]4CCOC[C@H]4F)nc32)CC1 [Compound 1, cis-4-[2-{[(3S,4R)-3-fluorooxan-4-yl]amino}-8-(2,4,6-trichloroanilino)-9H-purin-9-yl]-1-methylcyclohexane-1-carboxamide], the Axin2 expression [1] was “inhibits Axin2 expression”, the antitumor activity (Colo 205 xenograft; orally, QD for 15 days at 0.2, 1, 5, 10, and 15 mg/kg) was “Dose-dependent antitumor activity” and the antitumor activity (Colo 205 xenograft; scheduling study (BID dosing)) was “Dose-dependent antitumor activity”. For the same molecule, the “surface PD-L1 levels” value [2] was “inhibited”, the “inhibition of colony formation vs trametinib and GDC0994” value (SW48 (colo) cells) was “greater levels of inhibition than seen with treatment with MEK inhibitors or ERK inhibitors” and the “hygroscopicity with respect to monohydrate” value ([3]; 0-95% RH) was < 4.3%. For the same molecule, the “hygroscopicity (in words)” value ([3]; DVS) was “slightly hygroscopic”, the remaining water released ([3]; from 5% RH to dry) was ~2.8 % wt and the additional moisture sorption ([3]; from 25 to 95% RH) was ~1.7%. The “loss of water content during desorption cycle” value ([3]; from 95 down to 5% RH) was ~1.5% and the pIC50 (pRSK1 S380 in SW48 cells) was 7.68.
